“Also recorded” adds a separate entry of the source. Ends that are not written are not given here.
How the values were obtained:
CT-26/EV tumours = assay: Syngeneic subcutaneous tumour model, CT-26/EV cells in BALB/c mice; type: in vivo, mouse; settings: CT-26/EV (no forced KITENIN overexpression), KDIP 1 mg/kg intravenously alternate days for 14 days
Procedure: The CT‐26 cell/syngeneic mouse model was used to investigate the in vivo effects of KDIP on colorectal tumourigenesis, as it is reported that a syngeneic mouse tumour model is good for testing the anticancer effects of candidate substances.[25], [26] Male Balb/c mice (5‐week old) were purchased from DaMul Science, Korea and acclimated for 1 week prior to subcutaneous injection of syngeneic CT‐26/EV (3 × 10^6) or CT‐26/KITENIN cells (1 × 10^6) into the dorsum. Tumour volume was calculated using the following equation: V = 1/2 × a × b […], where a and b are the longest and shortest diameters of the tumour (in millimetres), respectively. Tumour volume was measured every other day for 14 days to verify the effects of KDIP. All mice were sacrificed after Day 30 (Figure 7B), and the subcutaneous tumour grafts were surgically excised and weighed.
For the experimental tumour model, CT‐26/EV or CT‐26/KITENIN‐V5 cells were injected into the right back of BALB/c mice to form tumours, and KDIP was injected intravenously according to the timeline shown in Figure 7B. Considering the suppressive effect of KDIP on the cell invasion of CT‐26 cells, the initial test dosage was set to 1 mg/kg, which is equivalent to the half‐maximal inhibitory concentration (IC50) of KDIP on cell invasion. […] After 2 weeks of treatment, the mice were sacrificed and the tumours were analysed. […]

CT-26/iRFP/KITENIN cells = assay: Transwell cell invasion assay, CT-26/iRFP/KITENIN or CT-26/KITENIN-V5 cells; type: cell-based, mouse; settings: increasing doses of KDIP, compared with scramble peptide

## YARVRRRGPRRWRLVSDEAV [KDIP]
CT-26/EV tumours
  tumour growth (in words): little effect on tumor growth; also recorded: little effect on tumour growth
CT-26/iRFP/KITENIN cells
  cell invasion of CT-26/KITENIN-V5 cells (in words): significantly reduced

From paper PMC9296036, “A peptide interfering with the dimerization of oncogenic KITENIN protein and its stability suppresses colorectal tumour progression” (Clinical and Translational Medicine, 2022)
